By IC50 is commonly meant the concentration that inhibits the measured activity by half. The low end stands for greater potency, the high end for weaker potency.

Molecules are shown by their SMILES. Where a name gives a salt, the structure may show the parent alone. Where only a bound is given, the exact number is not on record here.
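Also: rho kinase enzyme reaction halted with EDTA, phospho- and non-phospho peptide separated for read-out, kinase activity inhibition derived across a dose-response series, DMSO under 2%.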

In this assay the target is ROCK2 (Homo sapiens (Human), UniProt O75116). Kind of assay: biochemical.
Sequence of ROCK2 (O75116 whole entry, species assumed): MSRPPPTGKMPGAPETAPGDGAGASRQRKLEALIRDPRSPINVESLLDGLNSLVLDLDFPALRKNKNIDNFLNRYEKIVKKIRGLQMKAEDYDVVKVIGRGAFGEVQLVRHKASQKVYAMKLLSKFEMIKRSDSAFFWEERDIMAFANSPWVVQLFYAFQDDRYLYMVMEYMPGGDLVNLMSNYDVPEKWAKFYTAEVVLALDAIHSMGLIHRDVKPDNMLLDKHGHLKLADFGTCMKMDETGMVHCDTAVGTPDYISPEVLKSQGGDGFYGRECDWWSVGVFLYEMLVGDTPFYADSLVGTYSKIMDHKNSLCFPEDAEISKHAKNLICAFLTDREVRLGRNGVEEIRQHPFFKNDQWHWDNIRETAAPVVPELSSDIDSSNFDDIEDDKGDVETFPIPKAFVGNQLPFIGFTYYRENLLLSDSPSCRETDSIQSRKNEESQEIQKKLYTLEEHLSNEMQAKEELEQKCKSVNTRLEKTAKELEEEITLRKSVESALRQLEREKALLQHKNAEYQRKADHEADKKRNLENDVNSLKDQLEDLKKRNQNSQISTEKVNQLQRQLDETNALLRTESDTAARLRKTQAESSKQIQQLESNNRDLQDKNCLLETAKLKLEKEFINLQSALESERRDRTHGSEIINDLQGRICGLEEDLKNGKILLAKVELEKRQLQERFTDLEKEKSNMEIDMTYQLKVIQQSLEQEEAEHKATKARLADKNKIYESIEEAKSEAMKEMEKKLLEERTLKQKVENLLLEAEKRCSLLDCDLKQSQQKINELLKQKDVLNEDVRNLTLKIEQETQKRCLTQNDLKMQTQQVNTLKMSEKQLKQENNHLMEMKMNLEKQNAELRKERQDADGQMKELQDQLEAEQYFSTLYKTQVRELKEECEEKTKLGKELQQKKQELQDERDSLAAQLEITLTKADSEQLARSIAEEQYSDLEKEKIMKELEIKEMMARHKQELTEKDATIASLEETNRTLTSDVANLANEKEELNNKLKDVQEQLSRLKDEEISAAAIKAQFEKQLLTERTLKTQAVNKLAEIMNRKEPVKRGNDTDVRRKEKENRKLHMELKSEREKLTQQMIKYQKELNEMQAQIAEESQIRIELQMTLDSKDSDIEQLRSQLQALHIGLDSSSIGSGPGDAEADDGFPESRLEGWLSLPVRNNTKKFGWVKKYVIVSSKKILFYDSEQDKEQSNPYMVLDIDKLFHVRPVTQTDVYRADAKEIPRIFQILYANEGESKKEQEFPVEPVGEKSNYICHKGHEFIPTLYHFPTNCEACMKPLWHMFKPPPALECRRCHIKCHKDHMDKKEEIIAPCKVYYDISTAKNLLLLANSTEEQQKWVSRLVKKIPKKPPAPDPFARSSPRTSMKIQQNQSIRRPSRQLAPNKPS
As for `CNc1nc(N2CCC(Nc3cc(F)cc(OC)c3)C2=O)ccc1-c1cn[nH]c1` (single isomer, unassigned) [Example 251, 3-((3-fluoro-5-methoxyphenyl)amino)-1-(6-(methylamino)-5-(1H-pyrazol-4-yl)pyridin-2-yl)pyrrolidin-2-one], the 50% inhibitory concentration (IC50) was 10 to 100 nM. As for `COc1c(F)cccc1NC1CCN(c2ccc(-c3cn[nH]c3)c(F)c2)C1=O` (single isomer, unassigned) [Example 337, 3-((3-fluoro-2-methoxyphenyl)amino)-1-(3-fluoro-4-(1H-pyrazol-4-yl)phenyl) pyrrolidin-2-one], the figure is 100 to 2200 nM; as for `COc1cccc(N(CCO)C2CCN(c3ccc(-c4cn[nH]c4)cc3)C2=O)c1` (centres unmarked) [Example 12, 1-(4-(1H-pyrazol-4-yl)phenyl)-3-((2-hydroxyethyl)(3-methoxyphenyl)amino)pyrrolidin-2-one], 10 to 100 nM; as for `COc1cc(NC2CCN(c3ccc(-c4cn[nH]c4)c(OC(F)F)c3)C2=O)ccc1F` (single isomer, unassigned) [Example 106, 1-[3-(difluoromethoxy)-4-(1H-pyrazol-4-yl)phenyl]-3-[(4-fluoro-3-methoxyphenyl)amino]pyrrolidin-2-one], 10 to 100 nM. To `CN(C)c1cccc(N[C@@H]2CCN(c3ccc(-c4cn[nH]c4)cc3)C2=O)c1` [Example 390, (R)-1-(4-(1H-pyrazol-4-yl)phenyl)-3-((3-(dimethylamino)phenyl)amino)pyrrolidin-2-one] belongs 100 to 2200 nM; to `COc1ccc(N[C@@H]2CCN(c3ccc(-c4cn[nH]c4)cc3)C2=O)c(OC)c1` [Example 384, (R)-1-(4-(1H-pyrazol-4-yl)phenyl)-3-((2,4-dimethoxyphenyl)amino)pyrrolidin-2-one], 100 to 2200 nM.

Turning to `COc1cc(NC2CCN(c3cc(C)c(-c4cn[nH]c4)cn3)C2=O)ccc1F` (single isomer, unassigned) [Example 209, 3-((4-fluoro-3-methoxyphenyl)amino)-1-(4-methyl-5-(1H-pyrazol-4-yl)pyridin-2-yl)pyrrolidin-2-one], the 50% inhibitory concentration (IC50) lay within 100 to 2200 nM. To `COc1cccc(NC2CCN(c3ccc(-c4cn[nH]c4)cc3)C2=O)c1` (centres unmarked) [Example 63, 1-(4-(1H-pyrazol-4-yl)phenyl)-3-((3-methoxyphenyl)amino)pyrrolidin-2-one] belongs under 10 nM; to `COc1cc(NC2CCN(c3ccc(-c4cn[nH]c4)cc3)C2=O)ccc1F` (single isomer, unassigned) [Example 17, 1-(4-(1H-pyrazol-4-yl)phenyl)-3-((4-fluoro-3-methoxyphenyl)amino)pyrrolidin-2-one], 10 to 100 nM. As for `COc1nc(N2CCC(N3CCC(F)(F)C3)C2=O)ccc1-c1cn[nH]c1` (racemic) [Example 284, 3,3-difluoro-1′-(6-methoxy-5-(1H-pyrazol-4-yl)pyridin-2-yl)-[1,3′-bipyrrolidin]-2′-one hydrochloride], the figure is 100 to 2200 nM.

Molecule `COc1cc(NC2CCN(c3ccc(-c4cn[nH]c4)c(C)n3)C2=O)ccc1F` (single isomer, unassigned) [Example 194, 3-((4-fluoro-3-methoxyphenyl)amino)-1-(6-methyl-5-(1H-pyrazol-4-yl)pyridin-2-yl)pyrrolidin-2-one] came in with an IC50 of 10 to 100 nM.

The molecule `O=C1C(Cc2ccccc2)CCN1c1ccc(-c2cn[nH]c2)cc1` (centres unmarked) [Example 92, 1-(4-(1H-pyrazol-4-yl)phenyl)-3-benzylpyrrolidin-2-one] registered an IC50 of 100 to 2200 nM. To `COc1ccc(F)c(NC2CCN(c3ccc(-c4cn[nH]c4)cc3F)C2=O)c1` (single isomer, unassigned) [Example 341, 1-(2-fluoro-4-(1H-pyrazol-4-yl)phenyl)-3-((2-fluoro-5-methoxyphenyl)amino) pyrrolidin-2-one] belongs 10 to 100 nM; to `O=C1C(NCCc2ccccc2)CCN1c1ccc(-c2cn[nH]c2)cc1` (centres unmarked) [Example 59, 1-(4-(1H-pyrazol-4-yl)phenyl)-3-(phenethylamino)pyrrolidin-2-one, 2 TFA], 100 to 2200 nM; to `COc1cccc(NC2CCN(c3ccc(-c4cn[nH]c4)cc3Cl)C2=O)c1` (single isomer, unassigned) [Example 166, 1-(2-chloro-4-(1H-pyrazo1-4-yl)phenyl)-3 ((3-methoxyphenyl)amino)pyrrolidin-2-one], 100 to 2200 nM. Consider `Cc1cccc(OC2CCN(c3ccc(-c4cn[nH]c4)cc3)C2=O)c1` (centres unmarked) [Example 109, 1-(4-(1H-pyrazol-4-yl)phenyl)-3-(m-tolyloxy)pyrrolidin-2-one], for which the IC50 fell in the range of 100 to 2200 nM.

As to `COc1ccc(Cl)c(NC2CCN(c3ccc(-c4cn[nH]c4)c(OC)n3)C2=O)c1` (racemic) [Example 261, 3-((2-chloro-5-methoxyphenyl)amino)-1-(6-methoxy-5-(1H-pyrazol-4-yl)pyridin-2-yl)pyrrolidin-2-one], the IC50 was 10 to 100 nM. To `O=C1[C@H](Nc2ccc3c(c2)CS(=O)(=O)C3)CCN1c1ccc(-c2cn[nH]c2)cc1` [Example 392, (R)-1-(4-(1H-pyrazol-4-yl)phenyl)-3-((2,2-dioxido-1,3-dihydrobenzo[c]thiophen-5-yl)amino)pyrrolidin-2-one] belongs 100 to 2200 nM; to `COc1cc(F)cc(NC2CCN(c3ccc(-c4cn[nH]c4)c(Cl)c3)C2=O)c1` (single isomer, unassigned) [Example 158, 1-(3-chloro-4-(1H-pyrazol-4-yl)phenyl)-3 ((3-fluoro-5-methoxyphenyl)amino) pyrrolidin-2-one], 100 to 2200 nM; to `Cc1nc(N2CCC(Nc3cccc(OCC4CC4)c3)C2=O)ccc1-c1cn[nH]c1` (single isomer, unassigned) [Example 190, 3-((3-(cyclopropylmethoxy)phenyl)amino)-1-(6-methyl-5-(1H-pyrazol-4-yl)pyridin-2-yl)pyrrolidin-2-one], 10 to 100 nM. Consider `COc1cc(NC2CCN(c3ccc(-c4cn[nH]c4)cc3Cl)C2=O)ccc1F` (single isomer, unassigned) [Example 162, 1-(2-chloro-4-(1H-pyrazol-4-yl)phenyl)-3-((4-fluoro-3-methoxyphenyl)amino) pyrrolidin-2-one], for which the half-maximal inhibitory concentration (IC50) lay in the range of 100 to 2200 nM. For the molecule `COc1ccc(F)c(NC2CCN(c3ccc(-c4cn[nH]c4)c(F)c3)C2=O)c1` (single isomer, unassigned) [Example 334, 1-(3-fluoro-4-(1H-pyrazol-4-yl)phenyl)-3-((2-fluoro-5-methoxyphenyl)amino) pyrrolidin-2-one], the IC50 lay within 10 to 100 nM. As for `COc1cc(N2CCC(Nc3cc(F)cc(F)c3)C2=O)ccc1-c1cn[nH]c1` (single isomer, unassigned) [Example 145, 3-((3,5-difluorophenyl)amino)-1-(3-methoxy-4-(1H-pyrazol-4-yl)phenyl) pyrrolidin-2-one], the figure is 10 to 100 nM. As for `COc1cccc(NC2CCN(c3ccc(-c4ccnc(N)c4)cc3)C2=O)c1` (single isomer, unassigned) [Example 77, 1-(4-(2-aminopyridin-4-yl)phenyl)-3-((3-methoxyphenyl)amino)pyrrolidin-2-one], the IC50 was 10 to 100 nM. To `COc1cccc(NC2CCN(c3ccc(-c4ccnc5[nH]ccc45)cc3)C2=O)c1` (single isomer, unassigned) [Example 81, 1-(4-(1H-pyrrolo[2,3-b]pyridin-4-yl)phenyl)-3-((3-methoxyphenyl)amino)pyrrolidin-2-one] belongs 10 to 100 nM.

Take `CCc1nc(N2CCC(Nc3ccc(F)c(OCC4CC4)c3)C2=O)ccc1-c1cn[nH]c1` (single isomer, unassigned) [Example 211, 3-((3-(cyclopropylmelhoxy)-4-fluorophenyl)amino)-1-(6-ethyl-5-(1H-pyrazol-4-yl)pyridin-2-yl)pyrrolidin-2-one]: the IC50 fell in the range of 10 to 100 nM. The molecule `COc1cccc(NC2CCN(c3ccc(-c4cn[nH]c4)c(OC)c3)C2=O)c1` (centres unmarked) [Example 68, 1-(3-methoxy-4-(1H-pyrazol-4-yl)phenyl)-3-((3-methoxyphenyl)amino)pyrrolidin-2-one] came in with an IC50 of under 10 nM. To `COc1cccc(NC2CCN(c3ccc(-c4cn[nH]c4)c(C)n3)C2=O)c1` (single isomer, unassigned) [Example 188, 3-((3-methoxyphenyl)amino)-1-(6-methyl-5-(1H-pyrazol-4-yl)pyridin-2-yl)pyrrolidin-2-one] belongs 10 to 100 nM; to `COc1nc(N2CCC(N3CCC(N(C)C)CC3)C2=O)ccc1-c1cn[nH]c1` (racemic) [Example 276, 3-(4-(dimethylamino)piperidin-1-yl)-1-(6-methoxy-5-(1H-pyrazol-4-yl)pyridin-2-yl)pyrrolidin-2-one], 100 to 2200 nM; to `COc1cc(NC2CCN(c3ccc(-c4cn[nH]c4)c(OC)c3)C2=O)ccc1F` (single isomer, unassigned) [Example 155, 3-((4-fluoro-3-methoxyphenyl)amino)-1-(3-methoxy-4-(1H-pyrazol-4-yl)phenyl) pyrrolidin-2-one], under 10 nM. As for `COc1cccc(N[C@H]2C(=O)N(c3ccc(-c4cn[nH]c4)cc3)C[C@@H]2CO)c1` [Example 133, (3R,4S)-1-(4-(1H-Pyrazol-4-yl)phenyl)-4-(hydroxymethyl)-3-((3-methoxyphenyl)amino) pyrrolidin-2-one], the figure is under 10 nM; as for `COc1cccc(N[C@@H]2CCN(c3ccc(-c4cn[nH]c4)cc3)C2=O)c1` [Example 383, (R)-1-(4-(1H-Pyrazol-4-yl)phenyl)-3-((3-methoxyphenyl)amino)pyrrolidin-2-one], under 10 nM; as for `CCOc1cccc(NC2CCN(c3ccc(-c4cn[nH]c4)c(OC)n3)C2=O)c1` (single isomer, unassigned) [Example 218, 3-((3-ethoxyphenyl)amino)-1-(6-methoxy-5-(1H-pyrazol-4-yl)pyridin-2-yl)pyrrolidin-2-one], under 10 nM.

For `O=C1C(Nc2cccnc2)CCN1c1ccc(-c2cn[nH]c2)cc1` (centres unmarked) [Example 9, 1-(4-(1H-pyrazol-4-yl)phenyl)-3-(pyridin-3-ylamino)pyrrolidin-2-one], the concentration for half-maximal inhibition (IC50) fell in the range of 10 to 100 nM.

With `COc1cccc(NC2CCN(c3ccc(-c4ccnc5[nH]ccc45)c(OC)n3)C2=O)c1` (racemic) [Example 128, 1-(6-methoxy-5-(1H-pyrrolo[2,3-b]pyridin-4-yl)pyridin-2-yl)-3-((3-methoxyphenyl)amino) pyrrolidin-2-one], the concentration for half-maximal inhibition (IC50) lay in the range of 10 to 100 nM.

(Values after US10112929B2, “Lactams as inhibitors of rock” (BRISTOL-MYERS SQUIBB COMPANY, priority 2015, dated 2018).)
